Data taken from patent US20120015923A1, “USE OF ANDROGRAPHOLIDE COMPOUNDS FOR TREATING INFLAMMATION AND AIRWAY DISORDERS” (NATIONAL UNIVERSITY OF SINGAPORE, priority 2009, published 2012).

What was measured:
[1] = test system: lung tissue eosinophilia, mucus secretion and mast cells; assay: Histologic analysis of lung tissue (H&E, PAS, toluidine-blue); type: in vivo, BALB/c mice; conditions: OVA-challenged mice; for lung tissue eosinophilia / eosinophil-rich leukocyte infiltration (H&E): vs DMSO control
Description: Lungs were fixed in 10% neutral formalin, paraffinized, cut into 6-μm sections, and stained with hematoxylin and eosin (H&E) for examining cell infiltration and with periodic acid-Schiff stain (PAS) for measuring mucus production. Quantitative analysis was performed blinded as described below. Mast cells were detected in lung tissue using toluidine-blue staining, and the number of mast cells was counted in paraffin sections. The percentage of degranulated mast cells in the lung was calculated by counting the number of cells with 10% of extrusion of granules.
For both H&E and PAS staining, bronchioles selected for analysis were of similar structure and sizes, with clear morphology presentations and minimum disruptions of the surrounding tissues that could be formed during sectioning. The scoring of inflammatory and globlet cells was performed in 2-4 preparations of each mouse and mean scores were calculated from 4-5 mice. Peribronchial cell counts were performed in a blind manner and scored as known in the art. A five-point scoring system (0-4) was adapted: 0, no cells; 1, a few cells; 2, a ring of cells one cell layer deep; 3, a ring of cells two to four cells deep; 4, a ring of cells more than four cells deep. Goblet cell hyperplasia in the airway epithelium was assessed blind and scored according to the percentage of PAS-positive mucus-producing cells. A five-point (0-4) grading system was as follows: 0, no goblet cells; 1, <25%; 2, 25-50%; 3, 50-75%; 4, >75%. Briefly, to determine the severity of inflammatory cell infiltration, peribronchial cell counts were performed blind based on a 5-point scoring system: 0, no cells; 1, a few cells; 2, a ring of cells 1 cell layer deep; 3, a ring of cells 2-4 cells deep; 4, a ring of cells of >4 cells deep. To determine the extent of mucus production, goblet cell hyperplasia in the airway epithelium was quantified blind using a 5-point grading system: 0, no goblet cells; 1, <25%; 2, 25-50%; 3, 50-75%; 4, >75%. Scoring of inflammatory cells and goblet cells was performed in at least 3 different fields for each lung section. Mean scores were obtained from 4 animals. *Significant difference from DMSO control, P<0.05.

[2] = test system: total IgE and OVA-specific IgE, IgG1, and IgG2a in serum; assay: Serum Ig levels (ELISA), OVA mouse asthma model; type: in vivo, BALB/c mice; conditions: OVA-challenged mice, serum 24 hours after last OVA aerosol; for serum OVA-specific IgE level: DDAG even at lowest dose 0.1 mg/kg
Description: Blood collected from the hearts were allowed to clot for at least 4 h. Centrifugation at 3000 rpm for 5 min at 4° C. was then performed on all blood samples. The supernatant, which is the serum, was extracted carefully and stored at −80° C. The samples were kept for ELISA.
Mice were anesthetized 24 hours after the last aerosol challenge and bronchoalveolar lavage (BAL) was performed as described above. BAL fluid total and differential cell counts, and cytokine and chemokine levels were determined as described above. Blood was collected by cardiac puncture, and serum levels of total IgE and OVA-specific IgE, IgG1, and IgG2a levels were determined.
Levels of total IgE and OVA-specific IgE, IgG 1 , and IgG2a in serum were measured. 96-well ELISA plate coated with either 50 μl of capture antibody (for total IgE, 1:250 dilution with 1 M Na2CO3) or 50 μl of 20 μg/ml OVA (for OVA-specific IgE, IgG1, and IgG2a) overnight at 4° C. Next day, the plate was washed with washing buffer (PBS with 0.05% Tween-20 for total IgE; PBS with 0.1% Tween-20 for OVA-specific IgE) and blocked with 300 μl 10% FBS in PBS for 2 hr at room temperature. After blocking, standards (only for total IgE) and serum samples were loaded into respective wells and incubated for 2 h. Followed by washing, respective detective antibodies were added and incubated for 1 h, followed by 45 min incubation of HRP-conjugate antibody for 45 min in the dark. Substrates were then added for 30 min in the dark with mild shaking. Lastly, 50 μl of stopping solution (1 M H2SO4) was added to stop the reaction. The optical density of each well in the plate was read at 450 nm with λ correction at 570 nm. The detection limit for total IgE was 2 ng/ml.

[3] = test system: IL-6, IL-8 and RANTES mRNA in normal human bronchial epithelial cells; assay: TNF-α-induced cytokine mRNA expression in normal human bronchial epithelial cells; type: cell-based; conditions: 10 ng/ml TNF-α for 12 hours; 30 μM
Description: To determine the effects of andrograhpolide on OVA-specific immune responses in lymphocytes, thoracic lymph node cells were grown in bronchial epithelial bulletkit medium (Cambrex BioScience, Walkersvile, Md., USA), supplemented with bovine pituitary extract (2 ml), hydrocortisone (0.5 ml), recombinant human EGF (0.5 ml), epinephrine (0.5 ml), transferrin (0.5 ml), insulin (0.5 ml), retinoic acid (0.5 ml), triiodothyronine (0.5 ml), gentamycin sulfate (50 μg/ml), and amphotericin B (50 ng/ml). The cells were incubated in 5% CO2 incubator at 37° C., and subcultured at 80% to 85% confluency. Cells were exposed to 200 μg/ml OVA for 72 hours. Concanavalin A (Con A, 10 μug/ml) was used as a positive control. Supernatants from parallel triplicate cultures were analyzed for cytokine levels by ELISA. Normal human bronchial epithelial cells were cultured in optimized bronchial epithelial bulletkit medium with supplements (Lonza, Basel, Switzerland). Cells were pretreated with 30 μM andrographolide or vehicle (0.01% DMSO) 4 hours before stimulation with 10 ng/ml tumor necrosis factor (TNF)-α. Total and nuclear proteins, and mRNA were extracted from cells at specified time intervals.
PCR amplifications were then performed using the multiwell thermal cycler on 1 μl cDNA template in a 25 μl reaction volume. The reaction volume contained 10.5 μl nuclease-free water, 0.5 μl forward primer (10 μM), 0.5 μl reverse primer (10 μM) and 12.5 μl 2×PCR master mix (50 units/ml TaqDNA polymerase, 400 μM dATP, 400 μM dGTP, 400 μM dCTP, 400 μM dTTP and 3 mM MgCl2).

[4] = DDAG significant at higher doses

SMILES | E-selectin [1] | VCAM-1 [1] | airway mucus production / mucus hypersecretion (PAS) ([1]; 1 mg/kg) | lung tissue eosinophilia / eosinophil-rich leukocyte infiltration (H&E) ([1]; 1 mg/kg) | serum OVA-specific IgG2a level [2] | serum OVA-specific IgE level [2] | serum OVA-specific IgG1 level [2, 4] | serum total IgE level [2, 4] | TNF-α-induced up-regulation of IL-6 mRNA expression [3] | TNF-α-induced up-regulation of IL-8 mRNA expression [3] | TNF-α-induced up-regulation of RANTES mRNA expression [3] | total degranulating mast cell counts in toluidine-blue staining lung section ([1]; 1 mg/kg, vs DMSO vehicle control)
C=C1CC[C@@H]2[C@](C)(CO)[C@H](O)CC[C@@]2(C)[C@@H]1C/C=C1/C(=O)OC[C@H]1O [Andrographolide] | inhibited | inhibited | attenuated | attenuated | inhibition | significantly lowered | inhibition | significantly lowered | noticeably blocked | noticeably blocked | noticeably blocked | 
C=C1CCC2C(C)(CO)C(O)CCC2(C)C1C=CC1=CCOC1=O (stereo not drawn) [DDAG, 14-Deoxy-11,12-didehydroandrographolide] |  |  | significantly halted | markedly diminished | no effects | strongly suppressed |  | to a lesser extent |  |  | strongly suppressed | drastically decreased
